For assay [1], the species on record is Sus scrofa. The assay can be described thus: Inhibition of H+/K+ATPase in pig gastric microsome assessed as liberation of inorganic phosphate using ATP at 10 uM relative to control. It counts as microsomes. The settings on record: Stomach.
Assay [2] is described as follows: Inhibition of H+/K+ATPase in pig gastric microsome assessed as liberation of inorganic phosphate using ATP. It counts as microsomes, Sus scrofa, Stomach.

Turning to `COc1ccnc(C[S+]([O-])c2nc3cc(N4CCCCC4)c(NC(=O)C4CC4)cc3[nH]2)c1OC` (stereo unspecified), the inhibition (commonly the percentage by which the read-out fell short of the control) in assay [1] was 32%.

For the molecule `COc1cc2nc([S+]([O-])Cc3ncc(C)c(OC)c3C)[nH]c2cc1NC(=O)c1ccco1` (stereo unspecified), the inhibition in assay [1] was determined as 13%.

In the case of `COc1ccnc(C[S+]([O-])c2nc3cc(N4CCCCC4)c(NC(=O)C(F)(F)F)cc3[nH]2)c1OC` (stereo unspecified), the inhibition in assay [1] is 38%. For the molecule `COc1ccnc(C[S+]([O-])c2nc3cc(Oc4ccc5c(c4)OCO5)c(NC(C)=O)cc3[nH]2)c1OC` (stereo unspecified), the inhibition in assay [1] is 1%. Still for that read-out and setting: to `COc1c(C)cnc(C[S+]([O-])c2nc3cc(Oc4ccccc4)c(NC(=O)c4ccco4)cc3[nH]2)c1C` (stereo unspecified) belongs 48%; to `COc1ccnc(C[S+]([O-])c2nc3cc(N4CCCCC4)c(NC(C)=O)cc3[nH]2)c1OC` (stereo unspecified), 8%; to `CCCN(CCC)c1cc2nc([S+]([O-])Cc3nccc(OC)c3OC)[nH]c2cc1NC(C)=O` (stereo unspecified), 28%. The same measure, in the same setting: to `COc1c(C)cnc(C[S+]([O-])c2nc3cc(Oc4ccccc4)c(NC(C)=O)cc3[nH]2)c1C` (stereo unspecified) belongs 37%. For the molecule `COc1cc2nc([S+]([O-])Cc3nccc(OC)c3OC)[nH]c2cc1NC(=O)c1ccco1` (stereo unspecified), the inhibition in assay [1] was found to be 13%. With `COc1c(C)cnc(C[S+]([O-])c2nc3cc(Oc4ccc5c(c4)OCO5)c(NC(=O)C4CC4)cc3[nH]2)c1C` (stereo unspecified), the inhibition in assay [1] came to 10%. Same read-out and setting: to `COc1c(C)cnc(C[S+]([O-])c2nc3cc(N4CCCCC4)c(NC(=O)C4CC4)cc3[nH]2)c1C` (stereo unspecified) belongs 34%; to `CCOC(=O)N1CCN(c2cc3nc([S+]([O-])Cc4ncc(C)c(OC)c4C)[nH]c3cc2NC(C)=O)CC1` (stereo unspecified), 15%. As to `CCOC(=O)N1CCN(c2cc3nc([S+]([O-])Cc4nccc(OC)c4OC)[nH]c3cc2NC(=O)C2CC2)CC1` (stereo unspecified), in assay [1], the inhibition came to 4%.

In the case of `CCOC(=O)N1CCN(c2cc3nc([S+]([O-])Cc4nccc(OC)c4OC)[nH]c3cc2NC(C)=O)CC1` (stereo unspecified), the inhibition in assay [1] was determined as 17%. As for `COc1cc2nc([S+]([O-])Cc3nccc(OC)c3OC)[nH]c2cc1NC(=O)C1CC1` (stereo unspecified), in assay [1], the inhibition is 16%.

On to `CCCN(CCC)c1cc2nc([S+]([O-])Cc3nccc(OC)c3OC)[nH]c2cc1NC(=O)C1CC1` (stereo unspecified), for which, in assay [1], the inhibition was found to be 11%. Still for that read-out and setting: to `COc1cc2nc([S+]([O-])Cc3nccc(OC)c3OC)[nH]c2cc1NC(C)=O` (stereo unspecified) belongs 4%. The same measure, in the same setting: to `COc1cc2nc([S+]([O-])Cc3ncc(C)c(OC)c3C)[nH]c2cc1NC(=O)C1CC1` (stereo unspecified) belongs 16%; to `COc1ccnc(C[S+]([O-])c2nc3cc(Oc4ccccc4)c(NC(=O)C4CC4)cc3[nH]2)c1OC` (stereo unspecified), 2%. For the molecule `CCCN(CCC)c1cc2nc([S+]([O-])Cc3nccc(OC)c3OC)[nH]c2cc1NC(=O)C(F)(F)F` (stereo unspecified), in assay [1], the inhibition worked out at 24%.

As to `COc1c(C)cnc(C[S+]([O-])c2nc3cc(N4CCCCC4)c(NC(=O)C(F)(F)F)cc3[nH]2)c1C` (stereo unspecified), the inhibition in assay [1] was 41%. The same measure, in the same setting: to `COc1ccnc(C[S+]([O-])c2nc3cc(N4CCCCC4)c(NC(=O)COCc4ccccc4)cc3[nH]2)c1OC` (stereo unspecified) belongs 32%. As to `COc1ccnc(C[S+]([O-])c2nc3cc(Oc4ccccc4)c(NC(C)=O)cc3[nH]2)c1OC` (stereo unspecified), the inhibition in assay [1] is 6%. `COc1ccnc(C[S+]([O-])c2nc3cc(Oc4ccc5c(c4)OCO5)c(NC(=O)C4CC4)cc3[nH]2)c1OC` (stereo unspecified): the inhibition in assay [1] was found to be 0%. On to `COc1ccc2[nH]c([S+]([O-])Cc3ncc(C)c(OC)c3C)nc2c1` (stereo unspecified) [OMEPRAZOLE], for which the inhibition in assay [1] turned out to be 39%. Moreover, in assay [2], the IC50 (as a rule, the concentration that inhibits the measured activity by half) worked out at 18 µM. Turning to `COc1c(C)cnc(C[S+]([O-])c2nc3cc(N4CCCCC4)c(NC(=O)COCc4ccccc4)cc3[nH]2)c1C` (stereo unspecified), the inhibition in assay [1] stood at 58%. Take `COc1cc2nc([S+]([O-])Cc3ncc(C)c(OC)c3C)[nH]c2cc1NC(C)=O` (stereo unspecified): in assay [1], the inhibition is 4%.

On to `CCCN(CCC)c1cc2nc([S+]([O-])Cc3nccc(OC)c3OC)[nH]c2cc1NC(=O)c1ccco1` (stereo unspecified), for which the inhibition in assay [1] is 0%. Same read-out and setting: to `CCCN(CCC)c1cc2nc([S+]([O-])Cc3ncc(C)c(OC)c3C)[nH]c2cc1NC(=O)c1ccco1` (stereo unspecified) belongs 39%; to `COc1c(C)cnc(C[S+]([O-])c2nc3cc(Oc4ccccc4)c(NC(=O)C4CC4)cc3[nH]2)c1C` (stereo unspecified), 18%.

Consider `COc1c(C)cnc(C[S+]([O-])c2nc3cc(Oc4ccc5c(c4)OCO5)c(NC(C)=O)cc3[nH]2)c1C` (stereo unspecified), for which the inhibition in assay [1] is 35%. Consider `CCCN(CCC)c1cc2nc([S+]([O-])Cc3ncc(C)c(OC)c3C)[nH]c2cc1NC(=O)C(F)(F)F` (stereo unspecified), for which the inhibition in assay [1] worked out at 3%. Still for that read-out and setting: to `CCOC(=O)N1CCN(c2cc3nc([S+]([O-])Cc4ncc(C)c(OC)c4C)[nH]c3cc2NC(=O)C2CC2)CC1` (stereo unspecified) belongs 21%. Regarding `CCCN(CCC)c1cc2nc([S+]([O-])Cc3ncc(C)c(OC)c3C)[nH]c2cc1NC(C)=O` (stereo unspecified), the inhibition in assay [1] worked out at 62%. In assay [2], the IC50 is 16 µM. In the case of `COCCCOc1ccnc(C[S+]([O-])c2nc3ccccc3[nH]2)c1C` (stereo unspecified) [RABEPRAZOLE SODIUM], the inhibition in assay [1] was 90%. Further, in assay [2], the IC50 was 1.5 µM.

Turning to `COc1ccnc(C[S+]([O-])c2nc3cc(Oc4ccccc4)c(NC(=O)c4ccco4)cc3[nH]2)c1OC` (stereo unspecified), the inhibition in assay [1] was found to be 9%.

For the molecule `CCCN(CCC)c1cc2nc([S+]([O-])Cc3ncc(C)c(OC)c3C)[nH]c2cc1NC(=O)C1CC1` (stereo unspecified), the inhibition in assay [1] was 33%. The same measure, in the same setting: to `COc1c(C)cnc(C[S+]([O-])c2nc3cc(N4CCCCC4)c(NC(C)=O)cc3[nH]2)c1C` (stereo unspecified) belongs 10%.

The record behind these values is ChEMBL document CHEMBL1795223, “A reverse method for diversity introduction of benzimidazole to synthesize H(+)/K(+)-ATP enzyme inhibitors” (Bioorg Med Chem Lett, 2011).
